Data: US10292949B2, “Pharmaceutical composition comprising rimeporide for treating diseases associated with insulin resistance and β-cell dysfunction” (Merck Patent GmbH, priority 2008, dated 2019)

Experiments:
Type in all cases: in vivo, rat
[1] = system: Obese, insulin resistant ZF (fa/fa) rats; experiment: Pharmacological Study Report I: random and fasting blood glucose and plasma insulin levels; settings: Compound A 150 mg/kg gavage twice daily, Compound B 40 mg/kg/day in chow
Protocol: (§1) Obese, insulin resistant ZF (fa/fa) rats, which are treated from the age of 8-12 weeks, were used as IR model. Rats were housed with a 12-h light/dark cycle and free access to food and water unless otherwise noted. Studies were approved by the Institutional Animal Care and Use Committee. There were a total of 18 animals in the study (8 week-old males, provided by Charles River). Animals were randomized into 3 groups (vehicle group, Compound A group, Compound B group, n=6 per group) based on random glucose level at the beginning of the study: • Group 1: ZF rats (fa/fa) (n=6), compound A (150 mg/kg via gavage) • Group 2: ZF rats (fa/fa) (n=6), compound B (40 mg/kg/day as admixture to the chow) • Group 3: ZF rats (fa/fa) (n=6), vehicle treatment (control chow, vehicle gavage)
(§2) Group 1 and 3 animals were treated with compound A or vehicle (water) for 4 weeks (from age 8-12 weeks) via oral gavage, twice daily. Chow containing compound B was fed to Group 2 ad lib. Group 1 and Group 3 were fed with chow without compound B ad lib.
Random morning blood was withdrawn from ad libitium fed rats by a small cut in the tip of the tail. Blood was collected in heparinized tubes. Blood glucose concentrations were measured as per study design using a One-Touch glucometer (Lifescan Inc, Milptias, Calif.). Blood samples were placed on ice and centrifuged, and plasma stored at −20° C. until insulin was assayed. Rat plasma insulin concentration was measured with rat-specific ELISA kit (Crystal Chem Inc, Downers Grove, Ill.).
Random morning blood glucose levels were measured weekly between 9-11 a.m.
At the end of the study, rats were fasted for 4 hours and glucose and insulin level were measured.

[2] = system: Obese, insulin resistant ZF (fa/fa) rats; experiment: Pharmacological Study Report I: deuterated glucose disposal test (2H-GDT); settings: 4 weeks, Compound A 150 mg/kg gavage twice daily
Protocol: as §1, §2
Rats underwent a 4 hour fast. […] At t=0, the blood glucose concentrations were determined with a glucometer, and a blood sample was obtained for determination of base line insulin and H2O^18 dilution. […]
One hundred micro liter aliquots of plasma samples inside the cape of an inverted vial were placed in a heating blocked filled with glass beads at 70° C. overnight and the water distillate inside the vial was collected. The deuterium and oxygen-18 isotope ratios of the blood of plasma samples were determined using a Thermo Finnigan High Temperature Conversion/Elemental Analyzer coupled with a Thermo Finnigan MAT 253 IRMS via a Conflo-III Interface. […] The deuterium isotope abundance is first calculated in δ 2H values relative to the international VSMOW standard, and then transformed to APE by using a calibration curve of standards with known enrichments. The ^2H2O enrichment was calculated for rats at 30 min after the glucose load. ^2H2O enrichment was converted to mmoles by multiplying enrichment by the TBW pool size and dividing by 20 (MW ^2H2O). […]

obese Zucker fa/fa rats = experiment: Pharmacological Study Report II: random and fasting (4 h) blood glucose and plasma insulin levels; settings: for Baseline Insulin (fasting) / Change in Insulin (fasting) / Week 4 Insulin (fasting): Mean ± SD; for Change in Insulin (fasting): change over the 4 week treatment period; for Week 4 Insulin (fasting): week 4 of treatment
Protocol: Thirty-six obese Zucker fa/fa and six lean Zucker fa/? male rats obtained from Charles River, were housed under normal vivarium conditions on a 12 hour light/dark cycle. The rats were kept two to a cage with food and water available ad lib, except during the weekly, 4 hour fasts. Water continued to be available during these fasts.
Compound A corresponds to Cariporide. Compound B corresponds to 2-Methyl-4,5-di-(methylsulfonyl)-benzoyl-guanidine hydrochloride hydrate. Compounds A and B were supplied in powder form by Merck Serono. Drugs were incorporated into a pelleted diet (LabDiet, 5001) by Research Diets, Inc (New Brunswick, N.J.) at concentrations of 0.44 g/kg or 0.88 g/kg of diet to yield approximate doses of 40 or 80 mg/kg. The concentration was calculated based on the assumption that a 300 g rat would eat about 30 g/d of chow. The same chow, but without drug, was fed to rats of both the lean and fa/fa control group animals.
One week prior to the start of the study, all rats were weighed. After a 4 hour fast, a blood sample was obtained for the determination of blood glucose, insulin, and glycosylated hemoglobin levels (HbA1c). Animals were then sorted on the basis of these parameters into the groups listed below. Rats were eight weeks of age at the onset of treatment.
• 1. ZF rats (fa/fa) (n=6) chow without drug • 2. ZF rats (fa/fa) (n=6) compound A (40 mg/kg/day) • 3. ZF rats (fa/fa) (n=6) compound A (80 mg/kg/day) • 4. ZF rats (fa/fa) (n=6) compound B (40 mg/kg/day) • 5. ZF rats (fa/fa) (n=6) compound B (80 mg/kg/day) • 6. lean Zucker rats (fa/?) (n=6) chow without drug Dosing Regime
Treatment appropriate chow was continuously available for 4 weeks except during scheduled 4 h fasts conducted once per week.
Both random and fasting (4 h) blood glucose levels were determined using a hand-held glucometer (OneTouch Ultra, Lifescan, Inc. Milapitas, Calif.) on blood obtained from tail capillary samples. Plasma insulin levels were determined by a rat specific ELISA (Ultra Sensitive Rat Insulin ELISA Kit, Crystal Chem, Inc., Chicago, Ill.). The 4 h fast period started at 9 a.m. and ended after a blood draw at 1 p.m.

SMILES: CC(C)c1ccc(C(=O)NC(=N)N)cc1S(C)(=O)=O [Compound A, Cariporide]
- Random morning blood glucose level vs vehicle group ([1]; 4 weeks): trended towards lower glucose level
- Fasting glucose levels, post vs pre treatment ([1]; 4 h fast, after 4 weeks): trended towards lower values post treatment
- Fasting insulin levels compared to pre-treatment levels ([1]; 4 h fast, after 4 weeks): significantly lower
- Insulin sensitivity (% 2H2O recovery per insulin AUC), post-treatment compared to pre-treatment [2]: no significant change
- Pancreatic compensation (% 2H2O recovery), before vs after treatment within group ([2]; Compound B 40 mg/kg/day in chow, 90 minute % D2O recovery): exhibited lower pancreatic compensation post-treatment
- Fasting glucose concentration (obese Zucker fa/fa rats; 40 mg/kg, after 4 weeks of administration, 4 h fast): increased
- Fasting insulin relative to the fa/fa vehicle control (obese Zucker fa/fa rats; 80 mg/kg, 4th week of treatment): significantly decreased
- Baseline Insulin (fasting) (obese Zucker fa/fa rats; 40 mg/kg group): 17.6 ± 5.1 ng/mL
- Baseline Insulin (fasting) (obese Zucker fa/fa rats; 80 mg/kg group): 15.9 ± 5.5 ng/mL
- Change in Insulin (fasting) (obese Zucker fa/fa rats; 40 mg/kg): 0.6 ± 9.6 ng/mL
- Change in Insulin (fasting) (obese Zucker fa/fa rats; 80 mg/kg): -3.4 ± 8.2 ng/mL
- Week 4 Insulin (fasting) (obese Zucker fa/fa rats; 40 mg/kg in chow): 18.2 ± 11.8 ng/mL
- Week 4 Insulin (fasting) (obese Zucker fa/fa rats; 80 mg/kg in chow): 12.5 ± 7.5 ng/mL
